Experimental data: US5627169A, “Selective antagonists for GABArho receptor” (The Regents of The University of California, priority 1994, dated 1997)
pKi: −log10 of the molar value.

Legend:
[1] = system: GABArho receptors expressed by bovine retina RNA; assay: Electrical recording in Xenopus oocytes expressing GABArho receptors from bovine retina RNA; format: cell-based
Source text: (§1) Electrical recording techniques and the Xenopus oocyte expression system were used to determine the sensitivity of a variety of commonly used GABAA and GABAB receptor ligands to GABArho receptors expressed by bovine retina RNA.

GABArho receptors = settings: cited from earlier work
[2] = system: GABAA receptors expressed by rat brain mRNA; assay: Xenopus oocytes expressing GABAA receptors from rat brain mRNA; format: cell-based
[3] = system: GABAA receptors expressed by bovine retina mRNA; assay: Xenopus oocytes expressing GABAA receptors from bovine retina mRNA; format: cell-based
Source text: as §1
When a methylphosphinic acid substituent was used to replace the carboxyl group of GABA in this compound, affects at GABAA receptors were prohibited, but relatively strong interactions at closed channel binding sites on GABArho receptors were detected.

[4] = system: chick brain GABAA receptors; assay: Membrane currents in Xenopus oocyte expressing chick brain GABAA receptors; format: cell-based; settings: various concentrations applied together with 10^-5 M GABA
Procedure: (§2) To test the new compounds synthesized, Xenopus oocytes were injected with the cloned GABA RNA and other oocytes were injected with native poly (A)^+ RNAs extracted from the rat cerebral cortex or spinal cord, bovine brain, rabbit brain, chick brain or optic lobe. […] The various concentrations of compound 7 were applied together with 10^-5M GABA.

cloned GABArho receptors = target: T1, cloned GABArho receptors (Homo sapiens, UniProt P24046); assay: Membrane currents in Xenopus oocytes expressing cloned GABArho receptors; format: cell-based
T1 construct: expressed in transfected cells; host or cells: Xenopus oocytes injected with cloned receptor RNA
Procedure: as §2
To study the time to onset of antagonistic action by TPMPA, a timed trial utilizing pulsed application of GABA (10^-5 M) and TPMPA (8×10^-5 M) was begun. At the first marker pulse of 50 nA, GABA administration of GABA was begun. TPMPA was applied between the 2nd and 3rd markers, and normal Ringers solution (without GABA) was applied at the 4th marker pulse.

[5] = system: GABAA receptors expressed by native mRNAs from the brain; assay: Xenopus oocytes expressing GABAA receptors from native brain mRNAs of different animal species; format: cell-based
Procedure: as §2

[6] = pulsed application of GABA 10^-5 M and TPMPA 8×10^-5 M

T1 sequence (P24046 22-479): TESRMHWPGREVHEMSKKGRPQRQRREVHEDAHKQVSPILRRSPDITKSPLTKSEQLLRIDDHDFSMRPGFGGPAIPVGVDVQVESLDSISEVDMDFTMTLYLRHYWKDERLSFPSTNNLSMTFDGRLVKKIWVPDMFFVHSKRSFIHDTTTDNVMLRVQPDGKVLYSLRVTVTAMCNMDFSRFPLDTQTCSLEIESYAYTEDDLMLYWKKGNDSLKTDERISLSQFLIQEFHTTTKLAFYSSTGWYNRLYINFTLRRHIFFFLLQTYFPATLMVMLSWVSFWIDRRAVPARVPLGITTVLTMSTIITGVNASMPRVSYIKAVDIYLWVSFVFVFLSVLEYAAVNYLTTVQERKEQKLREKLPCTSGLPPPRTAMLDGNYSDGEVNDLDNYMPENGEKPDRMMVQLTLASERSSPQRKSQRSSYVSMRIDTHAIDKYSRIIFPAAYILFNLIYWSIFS

## O=C(O)C1CCNCC1 [isonipecotic acid]
[1]
  action on GABArho receptors: either as weak partial agonists or as competitive antagonists

## CN1CCc2cc3c(cc2[C@H]1[C@@H]1OC(=O)c2c1ccc1c2OCO1)OCO3 [bicuculline]
GABArho receptors
  sensitivity of GABArho receptors: insensitive

## NCC(CC(=O)O)c1ccc(Cl)cc1 (stereo not drawn) [baclofen]
GABArho receptors
  sensitivity of GABArho receptors: insensitive

## CP(=O)(O)CCCN [3-aminopropyl(methyl-)phosphinic acid]
[2]
  effects on GABAA receptors: no detectable effects
[1]; read-out: Ki as competitive antagonist at GABArho receptors
  pKi: 6.10
[3]
  effects on GABAA receptors: no detectable effects

## CP(=O)(O)C1=CCNCC1 [Compound 7a, 1,2,5,6-tetrahydropyridine-4-methylphosphinic acid]
[1]; expressed by native bovine retina mRNA
  antagonism of GABArho receptors: potent and selective antagonist
[4]
  attenuation of currents elicited by activation of GABAA receptors: not greatly attenuated until quite high concentration were used
Cloned GABArho receptors; 8×10^-5 M compound applied together with 10^-5 M GABA
  effect on membrane current response to GABA: abolishes almost completely the response to GABA
Cloned GABArho receptors; expressed by cloned GABArho receptor RNA
  antagonism of GABArho receptors: potent and selective antagonist
Cloned GABArho receptors; [6]
  onset of antagonistic action: rapid in onset
  recovery from antagonistic action: recovery was also rapid
[5]
  blockage of GABAA receptors compared with GABArho receptors: blockage was less than that of GABArho receptors

## O=C(O)C1=CCNCC1 [isoguvacine]
[1]
  action on GABArho receptors: either as weak partial agonists or as competitive antagonists

## Oc1noc2c1CCNC2 [THIP, 4,5,6,7-tetrahydroisoxazolo-[5,4-c]-pyridin-3-ol]
[1]
  action on GABArho receptors: either as weak partial agonists or as competitive antagonists
